Results: ChEMBL document CHEMBL1151489, “N-(quinuclidin-3-YL)-1,8,-naphthalimides with 5-HT3 receptor antagonist and 5-HT4 receptor agonist properties” (Bioorg Med Chem Lett, 1993)
pEC50, pKi: −log10 of the molar value.

Key:
[1] = biological target: 5-hydroxytryptamine receptor 4 (Rattus norvegicus) (UniProt Q62758); experiment: lntrinsic activity relative to 5-HT receptor; format: functional
[2] = biological target: 5-hydroxytryptamine receptor 4 (Rattus norvegicus, UniProt Q62758); experiment: 5-hydroxytryptamine 4 receptor agonist activity in the rat esophageal muscularis mucosae; format: functional
[3] = biological target: Serotonin 3 (5-HT3) receptor (Rattus norvegicus) (UniProt P35563+Q9JJ16); experiment: In vivo 5-hydroxytryptamine 3 receptor antagonist activity by antagonism of the von Bezold-Jarisch (B-J) reflex in anesthetized rats, (i.v.); format: functional, organism-based
[4] = biological target: T1, Serotonin 3 (5-HT3) receptor (Rattus norvegicus, UniProt P35563+Q9JJ16); experiment: Binding affinity to 5-hydroxytryptamine 3 receptor was determined in rat cerebro cortical membranes using [3H]quipazine.; format: cell membranes
T1 sequence (P35563 whole entry): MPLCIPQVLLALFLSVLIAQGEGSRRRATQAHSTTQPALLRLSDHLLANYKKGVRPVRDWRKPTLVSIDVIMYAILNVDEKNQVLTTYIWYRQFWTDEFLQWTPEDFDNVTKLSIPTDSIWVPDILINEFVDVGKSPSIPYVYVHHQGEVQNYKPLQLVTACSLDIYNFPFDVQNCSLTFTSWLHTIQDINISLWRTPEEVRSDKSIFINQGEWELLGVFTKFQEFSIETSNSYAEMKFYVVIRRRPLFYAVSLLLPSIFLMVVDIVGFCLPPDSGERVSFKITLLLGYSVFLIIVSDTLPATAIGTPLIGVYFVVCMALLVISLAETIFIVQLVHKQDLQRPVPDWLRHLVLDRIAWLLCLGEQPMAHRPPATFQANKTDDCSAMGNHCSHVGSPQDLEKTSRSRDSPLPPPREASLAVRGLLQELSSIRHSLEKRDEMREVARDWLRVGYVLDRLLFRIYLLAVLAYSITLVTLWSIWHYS
T1 sequence (Q9JJ16 whole entry): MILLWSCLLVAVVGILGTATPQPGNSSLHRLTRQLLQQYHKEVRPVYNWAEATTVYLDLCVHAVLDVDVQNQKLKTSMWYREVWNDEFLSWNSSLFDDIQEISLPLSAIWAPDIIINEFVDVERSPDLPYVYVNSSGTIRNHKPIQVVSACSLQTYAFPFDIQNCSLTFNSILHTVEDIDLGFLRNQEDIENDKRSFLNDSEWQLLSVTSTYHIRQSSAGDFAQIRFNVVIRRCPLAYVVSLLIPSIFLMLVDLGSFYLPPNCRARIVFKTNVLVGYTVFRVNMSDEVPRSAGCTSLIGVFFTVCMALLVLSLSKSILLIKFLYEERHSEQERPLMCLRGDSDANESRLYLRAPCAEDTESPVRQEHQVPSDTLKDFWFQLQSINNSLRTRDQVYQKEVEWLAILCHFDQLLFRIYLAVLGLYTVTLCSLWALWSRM

Sequence of 5-hydroxytryptamine receptor 4 (Q62758 whole entry): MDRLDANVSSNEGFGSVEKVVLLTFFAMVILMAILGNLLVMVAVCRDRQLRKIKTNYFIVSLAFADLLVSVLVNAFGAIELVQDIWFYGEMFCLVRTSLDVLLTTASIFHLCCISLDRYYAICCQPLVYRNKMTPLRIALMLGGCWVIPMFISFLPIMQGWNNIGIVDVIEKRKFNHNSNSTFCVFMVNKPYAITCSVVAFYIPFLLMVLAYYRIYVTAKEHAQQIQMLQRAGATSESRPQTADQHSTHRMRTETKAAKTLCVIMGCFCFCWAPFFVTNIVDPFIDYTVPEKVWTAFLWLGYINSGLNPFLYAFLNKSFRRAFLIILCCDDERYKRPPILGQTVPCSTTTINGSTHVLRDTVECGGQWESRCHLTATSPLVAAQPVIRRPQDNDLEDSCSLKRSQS
Sequence of 5-hydroxytryptamine receptor 4 (Rattus norvegicus) (Q62758 whole entry): as above

Compound	Activity [1]	pEC50 [2]	Inhibitory dose (ID50) [3]	pKi [4]
COc1cc(N)c(Cl)cc1C(=O)N[C@H]1CN2CCC1CC2 [(R)ZACOPRIDE]	0.9	6.30	–	–
Nc1c(Cl)cc2c3c(cccc13)C(=O)N([C@@H]1CN3CCC1CC3)C2=O	0.8	7.90	0.077 mg/kg	8.00
Nc1c(Cl)cc2c3c(cccc13)C(=O)N([C@H]1CN3CCC1CC3)C2=O	–	< 6.00	0.0045 mg/kg	9.10
COc1cc(N)c(Cl)cc1C(=O)N[C@@H]1CN2CCC1CC2	0.9	7.20	–	–
CN1CCC(N2C(=O)c3cccc4c(N)c(Cl)cc(c34)C2=O)CC1	0.9	7.50	0.288 mg/kg	7.40
NCCc1c[nH]c2ccc(O)cc12	1	–	–	–
